Results published in patent US10196390B2, “TYK2 inhibitors and uses thereof” (Nimbus Lakshmi, Inc., priority 2014, dated 2019).

Key:
TYK2 = TYK2 (Homo sapiens (Human), UniProt P29597); experiment: Tyk2 activity inhibition assay (radioactive kinase assay / Caliper assay); format: biochemical
Procedure, shortened: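 Radiometric format: TYK2 with peptide substrate (20 μM) and 33P-ATP at 10 μM in HEPES pH 7.5, 1% DMSO, 120 min at room temp, P81 paper capture. Caliper mobility-shift format: TYK2 9.75 nM, peptide 30 at 3 uM, ATP 16 uM (also 1 mM), 25 min at 28° C.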

JAK2 = JAK2 (Homo sapiens (Human), UniProt O60674); experiment: JAK2 activity inhibition assay (radioactive kinase assay / Caliper assay); format: biochemical; details: read-out: JAK2 Ki
Procedure, shortened: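 Mobility-shift (Caliper) read-out of phosphorylated peptide substrate. Compound diluted in 25 mM HEPES pH 7.5, 0.01% Brij-35, 0.01% Triton, 0.5 mM EGTA; enzyme added, then peptide plus ATP in 10 mM MgCl2. Incubated 25 min at 28° C, stopped with EDTA buffer.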

Chain of TYK2 (P29597 whole entry): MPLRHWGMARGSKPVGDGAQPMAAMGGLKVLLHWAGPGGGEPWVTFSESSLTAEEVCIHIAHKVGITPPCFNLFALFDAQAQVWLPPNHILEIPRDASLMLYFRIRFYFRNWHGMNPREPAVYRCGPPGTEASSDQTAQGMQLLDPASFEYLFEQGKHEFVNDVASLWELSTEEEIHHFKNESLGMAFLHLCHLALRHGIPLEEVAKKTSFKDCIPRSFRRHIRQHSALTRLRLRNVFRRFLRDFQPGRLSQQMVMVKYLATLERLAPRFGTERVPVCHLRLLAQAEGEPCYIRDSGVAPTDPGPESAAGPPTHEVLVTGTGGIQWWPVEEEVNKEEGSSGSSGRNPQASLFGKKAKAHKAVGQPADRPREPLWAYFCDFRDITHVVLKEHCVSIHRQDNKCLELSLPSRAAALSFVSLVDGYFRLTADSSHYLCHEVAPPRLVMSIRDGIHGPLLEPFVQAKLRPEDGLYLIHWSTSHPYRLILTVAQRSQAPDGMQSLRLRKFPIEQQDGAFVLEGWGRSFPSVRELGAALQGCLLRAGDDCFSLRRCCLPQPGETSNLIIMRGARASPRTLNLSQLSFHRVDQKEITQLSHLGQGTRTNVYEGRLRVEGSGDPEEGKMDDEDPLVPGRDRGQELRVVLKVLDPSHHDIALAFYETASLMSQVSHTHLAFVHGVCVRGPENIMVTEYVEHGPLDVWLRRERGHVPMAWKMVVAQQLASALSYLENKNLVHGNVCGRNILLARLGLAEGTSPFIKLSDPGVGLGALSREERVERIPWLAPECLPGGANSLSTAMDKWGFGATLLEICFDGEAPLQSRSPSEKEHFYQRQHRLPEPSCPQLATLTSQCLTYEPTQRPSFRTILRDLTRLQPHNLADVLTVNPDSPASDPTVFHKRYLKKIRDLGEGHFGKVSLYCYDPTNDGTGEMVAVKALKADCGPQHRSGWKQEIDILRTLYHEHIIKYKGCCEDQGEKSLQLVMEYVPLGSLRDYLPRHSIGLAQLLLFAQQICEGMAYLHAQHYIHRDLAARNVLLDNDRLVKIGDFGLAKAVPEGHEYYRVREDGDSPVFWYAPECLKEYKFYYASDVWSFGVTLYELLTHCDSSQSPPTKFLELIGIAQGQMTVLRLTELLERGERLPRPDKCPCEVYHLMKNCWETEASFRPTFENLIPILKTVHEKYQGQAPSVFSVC
Chain of JAK2 (O60674 whole entry): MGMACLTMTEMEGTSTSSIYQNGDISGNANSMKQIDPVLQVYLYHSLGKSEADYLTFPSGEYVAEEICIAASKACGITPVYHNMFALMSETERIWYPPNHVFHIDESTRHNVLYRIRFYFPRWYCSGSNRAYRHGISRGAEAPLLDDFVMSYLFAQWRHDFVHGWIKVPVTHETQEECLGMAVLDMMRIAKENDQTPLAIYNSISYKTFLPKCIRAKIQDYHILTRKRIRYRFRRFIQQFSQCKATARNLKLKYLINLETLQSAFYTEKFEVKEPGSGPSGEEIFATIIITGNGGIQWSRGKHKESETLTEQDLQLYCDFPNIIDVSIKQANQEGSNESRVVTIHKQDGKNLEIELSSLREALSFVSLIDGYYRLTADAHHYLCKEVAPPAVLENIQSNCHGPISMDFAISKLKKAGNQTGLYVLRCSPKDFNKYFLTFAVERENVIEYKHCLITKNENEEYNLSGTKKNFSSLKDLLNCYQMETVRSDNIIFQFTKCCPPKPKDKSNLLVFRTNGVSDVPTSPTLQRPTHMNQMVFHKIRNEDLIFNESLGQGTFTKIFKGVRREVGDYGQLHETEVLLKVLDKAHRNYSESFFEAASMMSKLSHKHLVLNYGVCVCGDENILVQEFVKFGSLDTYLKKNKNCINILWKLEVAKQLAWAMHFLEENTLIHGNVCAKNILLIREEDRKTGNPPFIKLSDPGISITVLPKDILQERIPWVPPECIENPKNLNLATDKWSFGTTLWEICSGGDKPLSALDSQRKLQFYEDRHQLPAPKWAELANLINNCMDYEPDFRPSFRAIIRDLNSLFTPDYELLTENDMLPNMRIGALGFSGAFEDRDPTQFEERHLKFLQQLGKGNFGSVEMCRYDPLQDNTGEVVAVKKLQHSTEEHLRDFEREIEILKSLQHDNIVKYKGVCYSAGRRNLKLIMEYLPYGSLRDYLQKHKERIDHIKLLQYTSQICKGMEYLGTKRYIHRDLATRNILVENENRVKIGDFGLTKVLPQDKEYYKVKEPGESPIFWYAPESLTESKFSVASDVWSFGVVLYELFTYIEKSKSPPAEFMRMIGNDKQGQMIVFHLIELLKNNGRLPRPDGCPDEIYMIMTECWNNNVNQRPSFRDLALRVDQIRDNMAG

| SMILES | Ki (TYK2) | Ki (JAK2) |
| --- | --- | --- |
| O=C(O)Cc1ccc(Nc2nc(-c3c(F)cncc3F)nc3c2C(=O)NC3)cc1 [Compound I-85, 2-(4-((2-(3,5-difluoropyridin-4-yl)-5-oxo-6,7-dihydro-5H-pyrrolo[3,4-d]pyrimidin-4-yl)amino)phenyl)acetic Acid] | 10 to 100 nM | > 1000 nM |
| O=C1NCc2nc(-c3c(F)cccc3F)cc(Nc3ccc([C@H]4CCNC4=O)cn3)c21 [Compound I-91, (R)-2-(2,6-difluorophenyl)-4-((5-(2-oxopyrrolidin-3-yl)pyridin-2-yl)amino)-6,7-dihydro-5H-pyrrolo[3,4-b]pyridin-5-one] | < 10 nM | 10 to 100 nM |
| O=C1NCc2nc(-c3c(F)cccc3F)cc(Nc3ccc([C@@H]4CCNC4=O)cn3)c21 [Compound I-92, (S)-2-(2,6-difluorophenyl)-4-((5-(2-oxopyrrolidin-3-yl)pyridin-2-yl)amino)-6,7-dihydro-5H-pyrrolo[3,4-b]pyridin-5-one] | < 10 nM | 10 to 100 nM |
| O=C1NCc2nc(-c3c(F)cccc3F)nc(Nc3ccc(CC(=O)N4CCOC[C@H]4C(=O)O)cc3)c21 [Compound I-112, (S)-4-(2-(4-((2-(2,6-difluorophenyl)-5-oxo-6,7-dihydro-5H-pyrrolo[3,4-d]pyrimidin-4-yl)amino)phenyl)acetyl)morpholine-3-carboxylic Acid] | < 10 nM | 100 to 1000 nM |
| O=C1NCc2nc(-c3c(F)cccc3Cl)nc(Nc3ccc(C4CCNC4=O)cc3)c21 (stereo not drawn) [Compound I-113, 2-(2-chloro-6-fluorophenyl)-4-((4-(2-oxopyrrolidin-3-yl)phenyl)-amino)-6,7-dihydro-5H-pyrrolo[3,4-d]pyrimidin-5-one] | < 10 nM | 100 to 1000 nM |
| COCCC1(c2ccc(Nc3nc(-c4c(F)cccc4F)nc4c3C(=O)NC4)cc2)CCNC1=O (stereo not drawn) [Compound I-116, 2-(2,6-difluorophenyl)-4-((4-(3-(2-methoxyethyl)-2-oxopyrrolidin-3-yl)phenyl)amino)-6,7-dihydro-5H-pyrrolo[3,4-d]pyrimidin-5-one] | < 10 nM | 10 to 100 nM |
| O=C1NCc2nc(-c3c(F)cccc3F)nc(Nc3ccc([C@@H]4CCN(C5CCC5)C4=O)cc3)c21 [Compound I-119, (S)-4-((4-(1-cyclobutyl-2-oxopyrrolidin-3-yl)phenyl)amino)-2-(2,6-difluorophenyl)-6,7-dihydro-5H-pyrrolo[3,4-d]pyrimidin-5-one] | < 10 nM | 100 to 1000 nM |
| CCNC(=O)C(C)(C)c1ccc(Nc2nc(-c3c(F)cccc3F)nc3c2C(=O)NC3)cc1 [Compound I-120, 2-(4-((2-(2,6-difluorophenyl)-5-oxo-6,7-dihydro-5H-pyrrolo[3,4-d]pyrimidin-4-yl)amino)phenyl)-N-ethyl-2-methylpropanamide] | < 10 nM | 100 to 1000 nM |
| O=C(NCCN1CCOCC1)c1ccc(Nc2nc(-c3c(F)cccc3F)nc3c2C(=O)NC3)cc1 [Compound I-127, 4-((2-(2,6-difluorophenyl)-5-oxo-6,7-dihydro-5H-pyrrolo[3,4-d]pyrimidin-4-yl)amino)-N-(2-morpholinoethyl)benzamide] | < 10 nM | 10 to 100 nM |
| COC(=O)[C@H]1C[C@H](Nc2nc(-c3c(F)cccc3F)nc3c2C(=O)NC3)C1 [Compound I-129, methyl (1r,3r)-3-((2-(2,6-difluorophenyl)-5-oxo-6,7-dihydro-5H-pyrrolo[3,4-d]pyrimidin-4-yl)amino)cyclobutane-1-carboxylate] | > 1000 nM | > 1000 nM |
| O=C1NCc2nc(-c3c(F)cccc3F)nc(N[C@H]3C[C@H](C(=O)O)C3)c21 [Compound I-130, (1r,3r)-3-((2-(2,6-difluorophenyl)-5-oxo-6,7-dihydro-5H-pyrrolo[3,4-d]pyrimidin-4-yl)amino)cyclobutane-1-carboxylic Acid] | > 1000 nM | > 1000 nM |
| COC(=O)Cc1ccc(Nc2cc(-c3c(F)cccc3F)nc3c2C(=O)NC3)nc1 [Compound I-132, methyl 2-(6-((2-(2,6-difluorophenyl)-5-oxo-6,7-dihydro-5H-pyrrolo[3,4-b]pyridin-4-yl)amino)pyridin-3-yl)acetate] | < 10 nM | 10 to 100 nM |
| O=C1NCc2nc(-c3c(F)cccc3F)cc(Nc3ccc(C4CCNC4=O)cn3)c21 (stereo not drawn) [Compound I-133, 2-(2,6-difluorophenyl)-4-((5-(2-oxopyrrolidin-3-yl)pyridin-2-yl)amino)-6,7-dihydro-5H-pyrrolo[3,4-b]pyridin-5-one] | < 10 nM | 10 to 100 nM |

Continued, values first:

| Ki (TYK2) | Ki (JAK2) | SMILES |
| --- | --- | --- |
| < 10 nM | 100 to 1000 nM | O=C(Cc1ccc(Nc2nc(-c3c(F)cccc3F)nc3c2C(=O)NC3)cc1)NCCO [Compound I-79, 2-(4-((2-(2,6-difluorophenyl)-5-oxo-6,7-dihydro-5H-pyrrolo[3,4-d]pyrimidin-4-yl)amino)phenyl)-N-(2-hydroxy-ethyl)acetamide] |
| < 10 nM | 100 to 1000 nM | O=C(Cc1ccc(Nc2nc(-c3c(F)cccc3Cl)nc3c2C(=O)NC3)cc1)N[C@@H]1CCNC1 [Compound I-81, (R)-2-(4-((2-(2-chloro-6-fluorophenyl)-5-oxo-6,7-dihydro-5H-pyrrolo[3,4-d]pyrimidin-4-yl)amino)phenyl)-N-(pyrrolidin-3-yl)acetamide] |
| 10 to 100 nM | > 1000 nM | O=C(O)Cc1ccc(Nc2nc(-c3c(F)cccc3C(F)(F)F)nc3c2C(=O)NC3)cc1 [Compound I-82, 2-(4-((2-(2-fluoro-6-(trifluoromethyl)phenyl)-5-oxo-6,7-dihydro-5H-pyrrolo[3,4-d]pyrimidin-4-yl)amino)phenyl)acetic Acid] |
| 10 to 100 nM | 100 to 1000 nM | O=C(Cc1ccc(Nc2nc(-c3c(F)cccc3C(F)(F)F)nc3c2C(=O)NC3)cc1)NC1CCNCC1 [Compound I-83, 2-(4-((2-(2-fluoro-6-(trifluoromethyl)phenyl)-5-oxo-6,7-dihydro-5H-pyrrolo[3,4-d]pyrimidin-4-yl)amino)phenyl)-N-(piperidin-4-yl)acetamide] |
| < 10 nM | 10 to 100 nM | O=C1NCc2nc(-c3c(F)cccc3F)nc(Nc3ccc(CC(=O)N4CCS(=O)(=O)CC4)cc3)c21 [Compound I-84, 2-(2,6-difluorophenyl)-4-((4-(2-(1,1-dioxidothiomorpholino)-2-oxoethyl)phenyl)amino)-6,7-dihydro-5H-pyrrolo[3,4-d]pyrimidin-5-one] |
| 10 to 100 nM | 100 to 1000 nM | COC(=O)[C@@H]1COCCN1C(=O)Cc1ccc(Nc2nc(-c3c(F)cccc3F)nc3c2C(=O)NC3)cc1 [Compound I-111, methyl (S)-4-(2-(4-((2-(2,6-difluorophenyl)-5-oxo-6,7-dihydro-5H-pyrrolo[3,4-d]pyrimidin-4-yl)amino)phenyl)acetyl)morpholine-3-carboxylate] |
| < 10 nM | 100 to 1000 nM | O=C1NCc2nc(-c3c(F)cccc3F)nc(Nc3ccc([C@H]4CCN(C5CCC5)C4=O)cc3)c21 [Compound I-118, (R)-4-((4-(1-cyclobutyl-2-oxopyrrolidin-3-yl)phenyl)amino)-2-(2,6-difluorophenyl)-6,7-dihydro-5H-pyrrolo[3,4-d]pyrimidin-5-one] |
| < 10 nM | 100 to 1000 nM | O=C1NCc2nc(-c3c(F)cccc3F)nc(Nc3ccc(C4CCN(CCN5CCOCC5)C4=O)cc3)c21 (stereo not drawn) [Compound I-121, 2-(2,6-difluorophenyl)-4-((4-(1-(2-morpholinoethyl)-2-oxopyrrolidin-3-yl)phenyl)amino)-6,7-dihydro-5H-pyrrolo[3,4-d]pyrimidin-5-one] |
| < 10 nM | 100 to 1000 nM | O=C1NCc2nc(-c3c(F)cccc3F)nc(Nc3ccc([C@H]4CCN(CCN5CCOCC5)C4=O)cc3)c21 [Compound I-122, (R)-2-(2,6-difluorophenyl)-4-((4-(1-(2-morpholinoethyl)-2-oxopyrrolidin-3-yl)phenyl)amino)-6,7-dihydro-5H-pyrrolo[3,4-d]pyrimidin-5-one] |
| < 10 nM | 100 to 1000 nM | O=C1NCc2nc(-c3c(F)cccc3F)nc(Nc3ccc([C@@H]4CCN(CCN5CCOCC5)C4=O)cc3)c21 [Compound I-123, (S)-2-(2,6-difluorophenyl)-4-((4-(1-(2-morpholinoethyl)-2-oxopyrrolidin-3-yl)phenyl)amino)-6,7-dihydro-5H-pyrrolo[3,4-d]pyrimidin-5-one] |
| < 10 nM | 10 to 100 nM | CC1(c2ccc(Nc3nc(-c4c(F)cccc4F)nc4c3C(=O)NC4)cc2)CCN(C2CCOCC2)C1=O (stereo not drawn) [Compound I-124, 2-(2,6-difluorophenyl)-4-((4-(3-methyl-2-oxo-1-(tetrahydro-2H-pyran-4-yl)pyrrolidin-3-yl)phenyl)amino)-6,7-dihydro-5H-pyrrolo[3,4-d]pyrimidin-5-one] |
| < 10 nM | 10 to 100 nM | C[C@@]1(c2ccc(Nc3nc(-c4c(F)cccc4F)nc4c3C(=O)NC4)cc2)CCN(C2CCOCC2)C1=O [Compound I-125, (S)-2-(2,6-difluorophenyl)-4-((4-(3-methyl-2-oxo-1-(tetrahydro-2H-pyran-4-yl)pyrrolidin-3-yl)phenyl)amino)-6,7-dihydro-5H-pyrrolo[3,4-d]pyrimidin-5-one] |
| < 10 nM | 10 to 100 nM | C[C@]1(c2ccc(Nc3nc(-c4c(F)cccc4F)nc4c3C(=O)NC4)cc2)CCN(C2CCOCC2)C1=O [Compound I-126, (R)-2-(2,6-difluorophenyl)-4-((4-(3-methyl-2-oxo-1-(tetrahydro-2H-pyran-4-yl)pyrrolidin-3-yl)phenyl)amino)-6,7-dihydro-5H-pyrrolo[3,4-d]pyrimidin-5-one] |
| > 1000 nM | > 1000 nM | CCNC(=O)[C@H]1C[C@H](Nc2nc(-c3c(F)cccc3F)nc3c2C(=O)NC3)C1 [Compound I-131, (1r,3r)-3-((2-(2,6-difluorophenyl)-5-oxo-6,7-dihydro-5H-pyrrolo[3,4-d]pyrimidin-4-yl)amino)-N-ethylcyclobutane-1-carboxamide] |
